Patent US20260258064A1 (SIRONAX LTD., priority 2023, published 2026)

Target: T1, SARM1 (50-724) (Homo sapiens, UniProt Q6SZW1)
T1 construct: Purified SARM1 (50-724) with a final concentration of 2 nM was pre-incubated with a test compound
T1 sequence (Q6SZW1 50-724): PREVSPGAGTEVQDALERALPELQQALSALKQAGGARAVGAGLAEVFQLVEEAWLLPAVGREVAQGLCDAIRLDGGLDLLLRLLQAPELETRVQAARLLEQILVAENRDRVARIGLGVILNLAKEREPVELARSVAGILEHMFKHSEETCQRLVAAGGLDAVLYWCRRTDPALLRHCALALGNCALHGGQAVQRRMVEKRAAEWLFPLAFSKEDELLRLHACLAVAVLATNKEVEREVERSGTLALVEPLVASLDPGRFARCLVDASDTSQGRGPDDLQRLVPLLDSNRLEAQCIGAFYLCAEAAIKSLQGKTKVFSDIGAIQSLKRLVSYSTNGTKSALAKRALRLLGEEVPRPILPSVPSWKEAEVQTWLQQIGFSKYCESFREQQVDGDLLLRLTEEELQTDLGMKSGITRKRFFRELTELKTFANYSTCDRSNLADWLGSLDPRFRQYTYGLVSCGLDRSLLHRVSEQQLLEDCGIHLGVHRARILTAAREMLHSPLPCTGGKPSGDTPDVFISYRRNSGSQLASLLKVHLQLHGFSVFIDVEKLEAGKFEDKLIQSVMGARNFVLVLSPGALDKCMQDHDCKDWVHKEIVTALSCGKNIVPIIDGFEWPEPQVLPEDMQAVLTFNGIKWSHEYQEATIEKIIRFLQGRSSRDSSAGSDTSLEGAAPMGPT
Assay: SARM1 (50-724) enzymatic assay (LC-MS/MS)
Assay type: biochemical
Settings: Purified SARM1 (50-724) 2 nM, NMN as activator, NAD+ as substrate, 1 h at room temperature, read-out: IC50 (SARM1 inhibitory activity)
Method in brief: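 Reaction buffer was Dulbecco's PBS. Compound and 2 nM human SARM1 (50-724) were pre-incubated 15 min at room temperature, then […] NAD^+ and 200 µM NMN activator were added for 1 h at room temperature. Acetonitrile (70%) stop, LC-MS/MS read-out, IC50 values.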

FC(F)(F)c1ccc2[nH]c(-c3nncn3-c3cncnc3C(F)(F)F)nc2c1 [Compound 415, 5-(trifluoromethyl)-2-(4-(4-(trifluoromethyl)pyrimidin-5-yl)-4H-1,2,4-triazol-3-yl)-1H-benzo[d]imidazole]
IC50: ≤ 100 nM

OCC1CC1c1cc(F)c2[nH]c(-c3nncn3-c3cnccc3C(F)(F)F)nc2c1 (centres unmarked) [Compound 416, (2-(7-fluoro-2-(4-(4-(trifluoromethyl)pyridin-3-yl)-4H-1,2,4-triazol-3-yl)-1H-benzo[d]imidazol-5-yl)cyclopropyl)methanol]
IC50: ≤ 100 nM

CN(c1cc(F)c2[nH]c(-c3nncn3-c3cnccc3C(F)(F)F)nc2c1)c1nccs1 [Compound 417, N-(7-fluoro-2-(4-(4-(trifluoromethyl)pyridin-3-yl)-4H-1,2,4-triazol-3-yl)-1H-benzo[d]imidazol-5-yl)-N-methylthiazol-2-amine]
IC50: ≤ 100 nM

CC(C)(O)c1cc(F)c2[nH]c(-c3nnccc3-c3cnccc3C(F)(F)F)nc2c1 [Compound 418, 2-(4-fluoro-2-(4-(4-(trifluoromethyl)pyridin-3-yl)pyridazin-3-yl)-1H-benzo[d]imidazol-6-yl)propan-2-ol]
IC50: ≤ 100 nM

Fc1cccc(-n2c(CCc3nccs3)nnc2-c2nc3cc(C(F)(F)F)ccc3[nH]2)c1Cl [Compound 419, 2-(2-(4-(2-chloro-3-fluorophenyl)-5-(5-(trifluoromethyl)-1H-benzo[d]imidazol-2-yl)-4H-1,2,4-triazol-3-yl)ethyl)thiazole]
IC50: 100 to 500 nM

Fc1cc(C2CC2)cc2nc(-c3nnccc3-c3cnccc3C(F)(F)F)[nH]c12 [Compound 420, 6-cyclopropyl-4-fluoro-2-(4-(4-(trifluoromethyl)pyridin-3-yl)pyridazin-3-yl)-1H-benzo[d]imidazole]
IC50: ≤ 100 nM

CC1(O)CC(Cc2nnc(-c3nc4cc(C(F)(F)F)ccc4[nH]3)n2-c2cccc(F)c2Cl)C1 (centres unmarked) [Compound 421, 3-((4-(2-chloro-3-fluorophenyl)-5-(5-(trifluoromethyl)-1H-benzo[d]imidazol-2-yl)-4H-1,2,4-triazol-3-yl)methyl)-1-methylcyclobutan-1-ol]
IC50: ≤ 100 nM

Fc1cc(C2(c3nccs3)CC2)cc2nc(-c3nncn3-c3cnccc3C(F)(F)F)[nH]c12 [Compound 422, 2-[1-[7-fluoro-2-[4-[4-(trifluoromethyl)-3-pyridyl]-1,2,4-triazol-3-yl]-1H-benzimidazol-5-yl]cyclopropyl]thiazole]
IC50: ≤ 100 nM

CC1CC(c2cc(F)c3[nH]c(-c4nncn4-c4cnccc4C(F)(F)F)nc3c2)CO1 (centres unmarked) [Compound 423, 7-fluoro-5-(5-methyltetrahydrofuran-3-yl)-2-[4-[4-(trifluoromethyl)-3-pyridyl]-1,2,4-triazol-3-yl]-1H-benzimidazole]
IC50: ≤ 100 nM

O=S1(c2cc(F)c3[nH]c(-c4nncn4-c4cnccc4C(F)(F)F)nc3c2)=NCCC1 (centres unmarked) [Compound 424, 1-[7-fluoro-2-[4-[4-(trifluoromethyl)-3-pyridyl]-1,2,4-triazol-3-yl]-1H-benzimidazol-5-yl]-4,5-dihydro-3H-isothiazole 1-oxide]
IC50: > 1000 nM

N#CC1(c2c(-c3nncn3-c3cnccc3C(F)(F)F)[nH]c3ccc(C(F)(F)F)cc23)CC1 [Compound 425, 1-[5-(trifluoromethyl)-2-[4-[4-(trifluoromethyl)-3-pyridyl]-1,2,4-triazol-3-yl]-1H-indol-3-yl]cyclopropanecarbonitrile]
IC50: ≤ 100 nM

FC(F)(F)c1ccc2[nH]c(-c3nncn3-c3cnccc3C(F)(F)F)c(-c3cccnn3)c2c1 [Compound 426, 3-pyridazin-3-yl-5-(trifluoromethyl)-2-[4-[4-(trifluoromethyl)-3-pyridyl]-1,2,4-triazol-3-yl]-1H-indole]
IC50: ≤ 100 nM

FC(F)(F)c1ccc2[nH]c(-c3nncn3-c3cnccc3C(F)(F)F)c(-c3ccnnc3)c2c1 [Compound 427, 3-pyridazin-4-yl-5-(trifluoromethyl)-2-[4-[4-(trifluoromethyl)-3-pyridyl]-1,2,4-triazol-3-yl]-1H-indole]
IC50: ≤ 100 nM

FC(F)(F)c1ccc2[nH]c(-c3nncn3-c3cnccc3C(F)(F)F)c(-c3ncccn3)c2c1 [Compound 428, 3-pyrimidin-2-yl-5-(trifluoromethyl)-2-[4-[4-(trifluoromethyl)-3-pyridyl]-1,2,4-triazol-3-yl]-1H-indole]
IC50: ≤ 100 nM

FC(F)(F)c1ccc2[nH]c(-c3nncn3-c3nnccc3C(F)(F)F)nc2c1 [Compound 429, 5-(trifluoromethyl)-2-(4-(4-(trifluoromethyl)pyridazin-3-yl)-4H-1,2,4-triazol-3-yl)-1H-benzo[d]imidazole]
IC50: ≤ 100 nM

CC(c1cc(F)c2[nH]c(-c3nncn3-c3cnccc3C(F)(F)F)nc2c1)c1cc[nH]n1 (centres unmarked) [Compound 430, 5-(1-(1H-pyrazol-5-yl)ethyl)-7-fluoro-2-(4-(4-(trifluoromethyl)pyridin-3-yl)-4H-1,2,4-triazol-3-yl)-1H-benzo[d]imidazole]
IC50: ≤ 100 nM

CC(c1ccccc1)c1cc(F)c2[nH]c(-c3nncn3-c3cnccc3C(F)(F)F)nc2c1 (centres unmarked) [Compound 431, 7-fluoro-5-(1-phenylethyl)-2-(4-(4-(trifluoromethyl)pyridin-3-yl)-4H-1,2,4-triazol-3-yl)-1H-benzo[d]imidazole]
IC50: ≤ 100 nM

CC(c1cc(F)c2[nH]c(-c3nncn3-c3cnccc3C(F)(F)F)nc2c1)c1ncco1 (centres unmarked) [Compound 435, 2-(1-(7-fluoro-2-(4-(4-(trifluoromethyl)pyridin-3-yl)-4H-1,2,4-triazol-3-yl)-1H-benzo[d]imidazol-5-yl)ethyl)oxazole]
IC50: ≤ 100 nM

CC1CCN(c2cc(F)c3[nH]c(-c4nncn4-c4cnccc4C(F)(F)F)nc3c2)C1 (centres unmarked) [Compound 436, 4-fluoro-6-(3-methylpyrrolidin-1-yl)-2-(4-(4-(trifluoromethyl)pyridin-3-yl)-4H-1,2,4-triazol-3-yl)-1H-benzo[d]imidazole]
IC50: ≤ 100 nM

N#CCc1cccc2[nH]c(-c3nncn3-c3cnccc3C(F)(F)F)nc12 [Compound 437, 2-(2-(4-(4-(trifluoromethyl)pyridin-3-yl)-4H-1,2,4-triazol-3-yl)-1H-benzo[d]imidazol-4-yl)acetonitrile]
IC50: > 1000 nM

CS(=O)(=O)Cn1cc(-c2nc3cc(C(F)(F)F)ccc3[nH]2)c(-c2cccc(Cl)c2Cl)n1 [Compound 438, 2-(3-(2,3-dichlorophenyl)-1-((methylsulfonyl)methyl)-1H-pyrazol-4-yl)-5-(trifluoromethyl)-1H-benzo[d]imidazole]
IC50: > 1000 nM

CS(=O)(=O)Cn1ncc(-c2nc3cc(C(F)(F)F)ccc3[nH]2)c1-c1cccc(Cl)c1Cl [Compound 439, 2-(5-(2,3-dichlorophenyl)-1-((methylsulfonyl)methyl)-1H-pyrazol-4-yl)-5-(trifluoromethyl)-1H-benzo[d]imidazole]
IC50: 100 to 500 nM

Fc1cc(C2CC2COC(F)F)cc2nc(-c3nncn3-c3cnccc3C(F)(F)F)[nH]c12 (centres unmarked) [Compound 440, 5-(2-((difluoromethoxy)methyl)cyclopropyl)-7-fluoro-2-(4-(4-(trifluoromethyl)-pyridin-3-yl)-4H-1,2,4-triazol-3-yl)-1H-benzo[d]imidazole]
IC50: ≤ 100 nM

OCC1(c2cc(F)c3[nH]c(-c4nncn4-c4cnccc4C(F)(F)F)nc3c2)CC1 [Compound 441, (1-(7-fluoro-2-(4-(4-(trifluoromethyl)pyridin-3-yl)-4H-1,2,4-triazol-3-yl)-1H-benzo[d]imidazol-5-yl)cyclopropyl)methanol]
IC50: ≤ 100 nM

N#CC1(c2cccc3[nH]c(-c4nncn4-c4cnccc4C(F)(F)F)nc23)CC1 [Compound 442, 1-(2-(4-(4-(trifluoromethyl)pyridin-3-yl)-4H-1,2,4-triazol-3-yl)-1H-benzo[d]imidazol-4-yl)cyclopropane-1-carbonitrile]
IC50: 100 to 500 nM

Fc1cccc(-n2nccc2-c2nc3cc(C(F)(F)F)ccc3[nH]2)c1Cl [Compound 443, 2-(1-(2-chloro-3-fluorophenyl)-1H-pyrazol-5-yl)-5-(trifluoromethyl)-1H-benzo[d]imidazole]
IC50: 100 to 500 nM

CC(c1cccnc1)c1cc(F)c2[nH]c(-c3nncn3-c3cnccc3C(F)(F)F)nc2c1 (centres unmarked) [Compound 444, 7-fluoro-5-(1-(pyridin-3-yl)ethyl)-2-(4-(4-(trifluoromethyl)pyridin-3-yl)-4H-1,2,4-triazol-3-yl)-1H-benzo[d]imidazole]
IC50: ≤ 100 nM

CC(c1ccncc1)c1cc(F)c2[nH]c(-c3nncn3-c3cnccc3C(F)(F)F)nc2c1 (centres unmarked) [Compound 445, 7-fluoro-5-(1-(pyridin-4-yl)ethyl)-2-(4-(4-(trifluoromethyl)pyridin-3-yl)-4H-1,2,4-triazol-3-yl)-1H-benzo[d]imidazole]
IC50: ≤ 100 nM

Fc1cc(Oc2nccs2)cc2nc(-c3nncn3-c3cnccc3C(F)(F)F)[nH]c12 [Compound 446, 2-((7-fluoro-2-(4-(4-(trifluoromethyl)pyridin-3-yl)-4H-1,2,4-triazol-3-yl)-1H-benzo[d]imidazol-5-yl)oxy)thiazole]
IC50: 100 to 500 nM
